Results as given in patent publication US7612064B2, “Sulfopyrroles” (Takeda Pharmaceutical Company Limited, priority 2003, dated 2009).

Columns and labels:
HeLa = assay: MTS proliferation assay; format: cell-based, human; conditions: 72 h
How it was run: (§1)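 Proliferation is assessed by MTS conversion, measured as 492 nm absorption. Cells are treated for three days (72 h) with four compound concentrations between 0.3 and 10 μM.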

Jurkat = assay: MTS proliferation assay; format: cell-based, human; conditions: 72 h
How it was run: as §1

Jily = assay: MTS proliferation assay; format: cell-based; conditions: 72 h
How it was run: as §1

MRC5 = assay: MTS proliferation assay; format: cell-based; conditions: MRC5, 72 h
How it was run: as §1

[1] = Hoechst 33342 nuclear staining; format: cell-based; conditions: for Hoechst 33342 nuclear staining score, H460: H460 cells; for Hoechst 33342 nuclear staining score, HeLa: HeLa cells; for Hoechst 33342 nuclear staining score, Jily: Jily cells; for Hoechst 33342 nuclear staining score, Jurkat: Jurkat cells; for Hoechst 33342 nuclear staining score, MRC5: MRC5 cells;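 as to all read-outs here: apoptotic nuclei scored 0 none 1 weak under 50% of cells 2 strong over 50% of cells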
How it was run: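 After a further 30 min incubation, plates were inspected on a standard inverted fluorescence microscope. The fraction of apoptotic nuclei and other apoptosis-specific morphology were scored as 0 for no activity, 1 for weak activity in less than 50% of the cells, and 2 for strong activity in more than 50% of the cells.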

Structure (SMILES) | IC50 (Jily) [µM] | Hoechst 33342 nuclear staining score, H460 ([1]; conc 0.1) | Hoechst 33342 nuclear staining score, H460 ([1]; conc 0.3) | Hoechst 33342 nuclear staining score, H460 ([1]; conc 1) | Hoechst 33342 nuclear staining score, H460 ([1]; conc 3) | Hoechst 33342 nuclear staining score, HeLa ([1]; conc 0.1) | Hoechst 33342 nuclear staining score, HeLa ([1]; conc 0.3) | Hoechst 33342 nuclear staining score, HeLa ([1]; conc 1) | Hoechst 33342 nuclear staining score, HeLa ([1]; conc 3) | Hoechst 33342 nuclear staining score, Jily ([1]; conc 0.1) | Hoechst 33342 nuclear staining score, Jily ([1]; conc 0.3) | Hoechst 33342 nuclear staining score, Jily ([1]; conc 1) | Hoechst 33342 nuclear staining score, Jily ([1]; conc 3) | Hoechst 33342 nuclear staining score, Jurkat ([1]; conc 0.1) | Hoechst 33342 nuclear staining score, Jurkat ([1]; conc 0.3) | Hoechst 33342 nuclear staining score, Jurkat ([1]; conc 1) | Hoechst 33342 nuclear staining score, Jurkat ([1]; conc 3) | Hoechst 33342 nuclear staining score, MRC5 ([1]; conc 0.1) | Hoechst 33342 nuclear staining score, MRC5 ([1]; conc 0.3) | Hoechst 33342 nuclear staining score, MRC5 ([1]; conc 1) | also measured
COc1cc(-c2cc(-c3cccnc3)cn2S(=O)(=O)c2c(Cl)cccc2Cl)cc(OC)c1OC [Example 85] | > 1 | 0 | 0 | 0 | 0 | 0 | 0 | 0 | 0 | 0 | 0 | 0 | 0 | 0 | 0 | 0 | 0 | 0 | 0 | 0 | IC50 (HeLa): > 1 µM; IC50 (Jurkat): > 1 µM; IC50 (MRC5): > 1 µM; Hoechst 33342 nuclear staining score, MRC5 ([1]; conc 3): 0; Hoechst 33342 nuclear staining score, PBLs ([1]; conc 0.1): 0; Hoechst 33342 nuclear staining score, PBLs ([1]; conc 0.3): 0; Hoechst 33342 nuclear staining score, PBLs ([1]; conc 1): 0; Hoechst 33342 nuclear staining score, PBLs ([1]; conc 3): 0
COc1ccc(S(=O)(=O)n2cc(-c3cncc(C(N)=O)c3)cc2-c2ccc(OC)cc2OC)cc1 [Example 106] | > 1 | 0 | 0 | 1 (weak activity comprising less than 50% of the cells) | 2 (strong activity comprising more than 50% of the cells) | 0 | 0 | 1 (weak activity comprising less than 50% of the cells) | 2 (strong activity comprising more than 50% of the cells) | 0 | 0 | 1 (weak activity comprising less than 50% of the cells) | 2 (strong activity comprising more than 50% of the cells) | 0 | 0 | 2 (strong activity comprising more than 50% of the cells) | 2 (strong activity comprising more than 50% of the cells) | 0 | 0 | 0 | IC50 (HeLa): > 1 µM; IC50 (Jurkat): > 1 µM; IC50 (MRC5): > 1 µM; Hoechst 33342 nuclear staining score, MRC5 ([1]; conc 3): 1 (weak activity comprising less than 50% of the cells); Hoechst 33342 nuclear staining score, PBLs ([1]; conc 0.1): 0; Hoechst 33342 nuclear staining score, PBLs ([1]; conc 0.3): 0; Hoechst 33342 nuclear staining score, PBLs ([1]; conc 1): 0; Hoechst 33342 nuclear staining score, PBLs ([1]; conc 3): 0
COc1cc(-c2cc(-c3cncc(CN)c3)cn2S(=O)(=O)c2ccc(C)cc2)cc(OC)c1OC [Example 58] | < 1 | 0 | 0 | 2 (strong activity comprising more than 50% of the cells) | 2 (strong activity comprising more than 50% of the cells) | 0 | 0 | 2 (strong activity comprising more than 50% of the cells) | 2 (strong activity comprising more than 50% of the cells) | 0 | 0 | 2 (strong activity comprising more than 50% of the cells) | 2 (strong activity comprising more than 50% of the cells) | 0 | 2 (strong activity comprising more than 50% of the cells) | 2 (strong activity comprising more than 50% of the cells) | 2 (strong activity comprising more than 50% of the cells) | 0 | 0 | 1 (weak activity comprising less than 50% of the cells) | IC50 (HeLa): < 1 µM; IC50 (Jurkat): < 1 µM; IC50 (MRC5): > 1 µM; Hoechst 33342 nuclear staining score, MRC5 ([1]; conc 3): 2 (strong activity comprising more than 50% of the cells); Hoechst 33342 nuclear staining score, PBLs ([1]; conc 0.1): 0; Hoechst 33342 nuclear staining score, PBLs ([1]; conc 0.3): 0; Hoechst 33342 nuclear staining score, PBLs ([1]; conc 1): 0; Hoechst 33342 nuclear staining score, PBLs ([1]; conc 3): 0
COc1ccc(S(=O)(=O)n2cc(-c3cccnc3)cc2-c2cc(OC)c(OC)c(OC)c2)cc1 [Example 76, 1-p-Methoxyphenylsulfonyl-4-(3-pyridyl)-2-(3,4,5-trimethoxyphenyl)-pyrrole] | < 0.2 | 2 (strong activity comprising more than 50% of the cells) | 2 (strong activity comprising more than 50% of the cells) | 2 (strong activity comprising more than 50% of the cells) | 2 (strong activity comprising more than 50% of the cells) | 1 (weak activity comprising less than 50% of the cells) | 2 (strong activity comprising more than 50% of the cells) | 2 (strong activity comprising more than 50% of the cells) | 2 (strong activity comprising more than 50% of the cells) | 2 (strong activity comprising more than 50% of the cells) | 2 (strong activity comprising more than 50% of the cells) | 2 (strong activity comprising more than 50% of the cells) | 2 (strong activity comprising more than 50% of the cells) | 2 (strong activity comprising more than 50% of the cells) | 2 (strong activity comprising more than 50% of the cells) | 2 (strong activity comprising more than 50% of the cells) | 2 (strong activity comprising more than 50% of the cells) | 1 (weak activity comprising less than 50% of the cells) | 1 (weak activity comprising less than 50% of the cells) | 1 (weak activity comprising less than 50% of the cells) | IC50 (HeLa; Homo sapiens): < 0.2 µM; IC50 (Jurkat; Homo sapiens): < 0.2 µM; IC50 (MRC5; Homo sapiens): < 0.2 µM; Hoechst 33342 nuclear staining score, MRC5 ([1]; conc 3): 1 (weak activity comprising less than 50% of the cells); Hoechst 33342 nuclear staining score, PBLs ([1]; conc 0.1): 0; Hoechst 33342 nuclear staining score, PBLs ([1]; conc 0.3): 0; Hoechst 33342 nuclear staining score, PBLs ([1]; conc 1): 0; Hoechst 33342 nuclear staining score, PBLs ([1]; conc 3): 0
COc1ccc(S(=O)(=O)n2cc(CNc3ccc(N4CCOCC4)cc3)cc2-c2cccc(OC)c2)cc1 [Example 98] | > 1 | 0 | 0 | 0 | 0 | 0 | 0 | 0 | 0 | 0 | 0 | 0 | 0 | 0 | 0 | 0 | 1 (weak activity comprising less than 50% of the cells) | 0 | 0 | 0 | IC50 (HeLa): > 1 µM; IC50 (Jurkat): > 1 µM; IC50 (MRC5): > 1 µM; Hoechst 33342 nuclear staining score, MRC5 ([1]; conc 3): 0; Hoechst 33342 nuclear staining score, PBLs ([1]; conc 0.1): 0; Hoechst 33342 nuclear staining score, PBLs ([1]; conc 0.3): 0; Hoechst 33342 nuclear staining score, PBLs ([1]; conc 1): 0; Hoechst 33342 nuclear staining score, PBLs ([1]; conc 3): 0
